Source: patent US20050171084A1, “Methods of treatment with lxr modulators” (priority 2002, published 2005)

Tests used:
[1] = target: T1, LXRβ protein (Homo sapiens, UniProt P55055); settings: 1 μM; over a background reading of 10000 fluorescence units; cited from earlier work
T1 sequence (P55055 1-460): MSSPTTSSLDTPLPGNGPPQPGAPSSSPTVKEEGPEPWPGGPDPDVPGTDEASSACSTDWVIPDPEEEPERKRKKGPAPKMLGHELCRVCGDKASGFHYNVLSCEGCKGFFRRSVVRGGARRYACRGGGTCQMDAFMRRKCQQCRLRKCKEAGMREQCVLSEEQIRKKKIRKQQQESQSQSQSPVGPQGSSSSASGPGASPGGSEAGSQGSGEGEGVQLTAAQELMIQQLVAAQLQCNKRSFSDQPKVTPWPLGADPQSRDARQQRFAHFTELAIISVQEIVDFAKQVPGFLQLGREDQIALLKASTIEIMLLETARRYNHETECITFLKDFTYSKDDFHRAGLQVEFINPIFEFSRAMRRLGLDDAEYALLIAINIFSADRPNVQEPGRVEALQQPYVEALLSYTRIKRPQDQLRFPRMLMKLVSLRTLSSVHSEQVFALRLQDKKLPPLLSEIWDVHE

[2] = system: rat pheochromocytoma cells; settings: Schmidt, et al. (19); cited from earlier work
[3] = system: Hippocampal neurons; experiment: Neurite outgrowth in hippocampal neurons; format: cell-based, rat; settings: HC neurons, 48 hours, SEM in parentheses
Procedure: Hippocampal neurons: The hippocampi of gestational day 18 rat embryos were dissected out, incubated in trypsin (0.08%, 30 min at 37° C.) and dissociated mechanically (16). Hippocampal cells were resuspended in neurobasal medium supplemented with B27, anti-oxidants, 1 mM glutamine, 25 μM glutamate, 1 mM pyruvate. For outgrowth assays, cells were plated at a density of 3000 cells/well into 96 well dishes that had previously been coated with poly-D-lysine followed by 10% FCS and cultured for 48 hours.
The test compound was solubilised in DMSO and added to culture medium at time of cell plating at a dilution of 1:1000. Vehicle only (1:1000) was added to culture medium of untreated controls. Cells were fixed with 4% paraformaldehyde for 1 hour on ice, washed with PBS and stained using Coomassie. Assays were quantified using a KS300 image analysis system (Imaging Associates, UK). For each cell measured, the length from the edge of the cell to the end of the longest neurite was measured for 100 cells/well for each treatment in triplicate. All data are means and SEM pooled from three independent experiments. Results are expressed as a percentage of the length of neurites of cells treated with vehicle alone.

SMILES	fluorescence reading [1]	neuronal differentiation [2]	length of longest neurite, percentage of cells treated with vehicle alone ([3]; 0.3 μm test compound)	length of longest neurite, percentage of cells treated with vehicle alone ([3]; 1.0 μm test compound)	length of longest neurite, percentage of cells treated with vehicle alone ([3]; 3.0 μm test compound)	length of longest neurite, percentage of cells treated with vehicle alone ([3]; 10.0 μm test compound)
C[C@H](CC[C@@H]1OC1(C)C)[C@H]1CC[C@H]2[C@@H]3CC=C4C[C@@H](O)CC[C@]4(C)[C@H]3CC[C@]12C [24(S), 25-epoxycholesterol]	20000 fluorescence units	–	–	–	–	–
CCCCCCCCCCCCCCOc1ccc(C(=O)O)o1 [5-tetradecyloxy-2-furancarboxylic acid]	–	induced neuronal differentiation	–	–	–	–
CC(C)CC[C@@H](O)[C@@H](C)[C@H]1CC[C@H]2[C@@H]3CC=C4C[C@@H](O)CC[C@]4(C)[C@H]3CC[C@]12C [22(R) hydroxychol., 22(R)-hydroxycholesterol, reference compound]	–	induced neuronal differentiation	115.9 (6.02) %	116 (7.45) %	129.9 (4.12) %	127.9 (6.18) %
